From patent US12077503B2, “Substituted cyclic amides and their use as herbicides” (FMC CORPORATION, priority 2015, dated 2024)

Tests used:
Type in all cases: in vivo
[1] = tested on: redroot pigweed (Amaranthus retroflexus); experiment: Test G Pre-Emergence Protocol; details: Amaranthus retroflexus, pre-emergence, 312 h, evaluated after 13 days; for pest or weed control at 15.625 g/ha: 15.625 g ai/ha; for pest or weed control at 15.625 g/ha / pest or weed control at 250 g/ha: read-out: Pigweed, Redroot damage rating (100=total damage to plant; 0=no damage to plant); for pest or weed control at 62.5 g/ha: 62.5 g ai/ha, 100=total damage to plant, 0=no damage to plant, read-out: plant damage rating, Pigweed, Redroot; for pest or weed control at 250 g/ha: 250 g ai/ha
Summary of the method: (§1)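 Herbicidal effect was rated 13 days post-application on a scale where 100 equals total damage. Spraying took place the day after sowing, using 15.625, 62.5 or 250 g/ha of compound in a 50:50 acetone/water solution with 0.5% Tween 20.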

[2] = tested on: ivy-leaved morning glory (Ipomoea hederacea); experiment: Test G Pre-Emergence Protocol; details: Ipomoea, pre-emergence, 312 h, evaluated after 13 days; for pest or weed control at 15.625 g/ha: 15.625 g ai/ha, read-out: Morning-glory, Ivy-leaved damage rating (100=total damage to plant; 0=no damage to plant); for pest or weed control at 62.5 g/ha: 62.5 g ai/ha, 100=total damage to plant, 0=no damage to plant, read-out: plant damage rating, Morningglory, Ivy-leaved; for pest or weed control at 250 g/ha: 250 g ai/ha, read-out: Morningglory, Ivy-leaved damage rating (100=total damage to plant; 0=no damage to plant)
Summary of the method: as §1

[3] = tested on: corn (Zea mays); experiment: Test G Pre-Emergence Protocol; details: Zea mays, pre-emergence, 312 h, evaluated after 13 days; for plant injury at 15.625 g/ha: 15.625 g ai/ha; for plant injury at 15.625 g/ha / plant injury at 250 g/ha: read-out: Corn damage rating (100=total damage to plant; 0=no damage to plant); for plant injury at 62.5 g/ha: 62.5 g ai/ha, 100=total damage to plant, 0=no damage to plant, read-out: plant damage rating, Corn; for plant injury at 250 g/ha: 250 g ai/ha
Summary of the method: as §1

[4] = tested on: barnyardgrass (Echinochloa crus-galli); experiment: Test G Pre-Emergence Protocol; details: Echinochloa crus-galli, pre-emergence, 312 h, evaluated after 13 days; for pest or weed control at 15.625 g/ha: 15.625 g ai/ha, read-out: Barnyard grass damage rating (100=total damage to plant; 0=no damage to plant); for pest or weed control at 62.5 g/ha: 62.5 g ai/ha, 100=total damage to plant, 0=no damage to plant, read-out: plant damage rating, Barnyardgrass; for pest or weed control at 250 g/ha: 250 g ai/ha, read-out: Barnyardgrass damage rating (100=total damage to plant; 0=no damage to plant)
Summary of the method: as §1

[5] = tested on: giant foxtail (Setaria faberi); experiment: Test G Pre-Emergence Protocol; details: Setaria faberi, pre-emergence, 312 h, evaluated after 13 days; for pest or weed control at 15.625 g/ha: 15.625 g ai/ha; for pest or weed control at 15.625 g/ha / pest or weed control at 250 g/ha: read-out: Foxtail, Giant damage rating (100=total damage to plant; 0=no damage to plant); for pest or weed control at 62.5 g/ha: 62.5 g ai/ha, 100=total damage to plant, 0=no damage to plant, read-out: plant damage rating, Foxtail, Giant; for pest or weed control at 250 g/ha: 250 g ai/ha
Summary of the method: as §1

[6] = tested on: velvetleaf (Abutilon theophrasti); experiment: Test G Pre-Emergence Protocol; details: Abutilon theophrasti, pre-emergence, 312 h, evaluated after 13 days; for pest or weed control at 15.625 g/ha: 15.625 g ai/ha; for pest or weed control at 15.625 g/ha / pest or weed control at 250 g/ha: read-out: Velvetleaf damage rating (100=total damage to plant; 0=no damage to plant); for pest or weed control at 62.5 g/ha: 62.5 g ai/ha, 100=total damage to plant, 0=no damage to plant, read-out: plant damage rating, Velvetleaf; for pest or weed control at 250 g/ha: 250 g ai/ha
Summary of the method: as §1

[7] = tested on: redroot pigweed (Amaranthus retroflexus); experiment: Test G Post-Emergence Protocol; details: Amaranthus retroflexus, post-emergence, 312 h; for pest or weed control at 15.625 g/ha: 15.625 g ai/ha, evaluated after 13 days (100=total damage to plant; 0=no damage to plant), read-out: Pigweed, Redroot damage rating; for pest or weed control at 62.5 g/ha: 62.5 g ai/ha, read-out: Pigweed, Redroot damage rating (100=total damage to plant; 0=no damage to plant); for pest or weed control at 62.5 g/ha / pest or weed control at 250 g/ha: evaluated after 13 days; for pest or weed control at 250 g/ha: 250 g ai/ha, read-out: damage to plant, Pigweed, Redroot (100=total damage to plant; 0=no damage to plant)
Summary of the method: (§2)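 Pot-grown seedlings, 8 days old, raised in a glasshouse at 24/16 °C day/night with 14 h light and 65% humidity, were sprayed post-emergence with test compound in acetone/water (50:50) plus 0.5% Tween 20 at 15.625, 62.5 or 250 g/ha. Damage was scored visually 13 days later on a 0–100 scale (100 = total damage).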

[8] = tested on: ivy-leaved morning glory (Ipomoea hederacea); experiment: Test G Post-Emergence Protocol; details: Ipomoea, post-emergence, 312 h; for pest or weed control at 15.625 g/ha: 15.625 g ai/ha, evaluated after 13 days (100=total damage to plant; 0=no damage to plant), read-out: Morningglory, Ivy-leaved damage rating; for pest or weed control at 62.5 g/ha: 62.5 g ai/ha, read-out: Morningglory, Ivy-leaved damage rating (100=total damage to plant; 0=no damage to plant); for pest or weed control at 62.5 g/ha / pest or weed control at 250 g/ha: evaluated after 13 days; for pest or weed control at 250 g/ha: 250 g ai/ha, read-out: damage to plant, Morningglory, Ivy-leaved (100=total damage to plant; 0=no damage to plant)
Summary of the method: as §2

[9] = tested on: corn (Zea mays); experiment: Test G Post-Emergence Protocol; details: Zea mays, post-emergence, 312 h; for plant injury at 15.625 g/ha: 15.625 g ai/ha, evaluated after 13 days (100=total damage to plant; 0=no damage to plant), read-out: Corn damage rating; for plant injury at 62.5 g/ha: 62.5 g ai/ha, read-out: Corn damage rating (100=total damage to plant; 0=no damage to plant); for plant injury at 62.5 g/ha / plant injury at 250 g/ha: evaluated after 13 days; for plant injury at 250 g/ha: 250 g ai/ha, read-out: damage to plant, Corn (100=total damage to plant; 0=no damage to plant)
Summary of the method: as §2

[10] = tested on: barnyardgrass (Echinochloa crus-galli); experiment: Test G Post-Emergence Protocol; details: Echinochloa crus-galli, post-emergence, 312 h; for pest or weed control at 15.625 g/ha: 15.625 g ai/ha, evaluated after 13 days (100=total damage to plant; 0=no damage to plant), read-out: Barnyardgrass damage rating; for pest or weed control at 62.5 g/ha: 62.5 g ai/ha, read-out: Barnyardgrass damage rating (100=total damage to plant; 0=no damage to plant); for pest or weed control at 62.5 g/ha / pest or weed control at 250 g/ha: evaluated after 13 days; for pest or weed control at 250 g/ha: 250 g ai/ha, read-out: damage to plant, Barnyardgrass (100=total damage to plant; 0=no damage to plant)
Summary of the method: as §2

[11] = tested on: giant foxtail (Setaria faberi); experiment: Test G Post-Emergence Protocol; details: Setaria faberi, post-emergence, 312 h; for pest or weed control at 15.625 g/ha: 15.625 g ai/ha, evaluated after 13 days (100=total damage to plant; 0=no damage to plant), read-out: Foxtail, Giant damage rating; for pest or weed control at 62.5 g/ha: 62.5 g ai/ha, read-out: Foxtail, Giant damage rating (100=total damage to plant; 0=no damage to plant); for pest or weed control at 62.5 g/ha / pest or weed control at 250 g/ha: evaluated after 13 days; for pest or weed control at 250 g/ha: 250 g ai/ha, read-out: damage to plant, Foxtail, Giant (100=total damage to plant; 0=no damage to plant)
Summary of the method: as §2

[12] = tested on: velvetleaf (Abutilon theophrasti); experiment: Test G Post-Emergence Protocol; details: Abutilon theophrasti, post-emergence, 312 h; for pest or weed control at 15.625 g/ha: 15.625 g ai/ha, evaluated after 13 days (100=total damage to plant; 0=no damage to plant), read-out: Velvetleaf damage rating; for pest or weed control at 62.5 g/ha: 62.5 g ai/ha, read-out: Velvetleaf damage rating (100=total damage to plant; 0=no damage to plant); for pest or weed control at 62.5 g/ha / pest or weed control at 250 g/ha: evaluated after 13 days; for pest or weed control at 250 g/ha: 250 g ai/ha, read-out: damage to plant, Velvetleaf (100=total damage to plant; 0=no damage to plant)
Summary of the method: as §2

SMILES	pest or weed control at 15.625 g/ha [1] [%]	pest or weed control at 62.5 g/ha [1] [%]	pest or weed control at 250 g/ha [1] [%]	pest or weed control at 15.625 g/ha [2] [%]	pest or weed control at 62.5 g/ha [2] [%]	pest or weed control at 250 g/ha [2] [%]	plant injury at 15.625 g/ha [3] [%]	plant injury at 62.5 g/ha [3] [%]	plant injury at 250 g/ha [3] [%]	pest or weed control at 15.625 g/ha [4] [%]	pest or weed control at 62.5 g/ha [4] [%]	pest or weed control at 250 g/ha [4] [%]	pest or weed control at 15.625 g/ha [5] [%]	pest or weed control at 62.5 g/ha [5] [%]	pest or weed control at 250 g/ha [5] [%]	pest or weed control at 15.625 g/ha [6] [%]	pest or weed control at 62.5 g/ha [6] [%]	pest or weed control at 250 g/ha [6] [%]	pest or weed control at 15.625 g/ha [7] [%]	pest or weed control at 62.5 g/ha [7] [%]	further results
Cc1n[nH]cc1NC(=O)[C@@H]1C(=O)N(C)C[C@H]1c1ccc(C(F)(F)F)cc1 (racemic) [Compound 1634]	0	0	0	0	0	0	0	0	0	0	0	0	0	0	0	0	0	0	0	0	pest or weed control at 250 g/ha [7]: 0%; pest or weed control at 15.625 g/ha [8]: 0%; pest or weed control at 62.5 g/ha [8]: 0%; pest or weed control at 250 g/ha [8]: 0%; plant injury at 15.625 g/ha [9]: 0%; plant injury at 62.5 g/ha [9]: 0%; plant injury at 250 g/ha [9]: 0%; pest or weed control at 15.625 g/ha [10]: 0%; pest or weed control at 62.5 g/ha [10]: 0%; pest or weed control at 250 g/ha [10]: 0%; pest or weed control at 15.625 g/ha [11]: 0%; pest or weed control at 62.5 g/ha [11]: 0%; pest or weed control at 250 g/ha [11]: 20%; pest or weed control at 15.625 g/ha [12]: 0%; pest or weed control at 62.5 g/ha [12]: 0%; pest or weed control at 250 g/ha [12]: 0%
CN1C[C@@H](c2ccc(C(F)(F)F)cc2)[C@H](C(=O)Nc2cccc(F)c2C#N)C1=O (racemic) [Compound 1637]	20	50	60	0	0	0	0	0	30	20	30	80	60	90	90	0	0	0	40	70	pest or weed control at 250 g/ha [7]: 70%; pest or weed control at 15.625 g/ha [8]: 0%; pest or weed control at 62.5 g/ha [8]: 20%; pest or weed control at 250 g/ha [8]: 30%; plant injury at 15.625 g/ha [9]: 0%; plant injury at 62.5 g/ha [9]: 0%; plant injury at 250 g/ha [9]: 10%; pest or weed control at 15.625 g/ha [10]: 20%; pest or weed control at 62.5 g/ha [10]: 70%; pest or weed control at 250 g/ha [10]: 70%; pest or weed control at 15.625 g/ha [11]: 60%; pest or weed control at 62.5 g/ha [11]: 80%; pest or weed control at 250 g/ha [11]: 80%; pest or weed control at 15.625 g/ha [12]: 0%; pest or weed control at 62.5 g/ha [12]: 10%; pest or weed control at 250 g/ha [12]: 30%
